Measurements taken from ChEMBL document CHEMBL3526086, “Identification of the oxidative and conjugative enzymes involved in the biotransformation of brivanib” (Drug Metab Dispos, 2012).

Assays:
Format in all cases: ADME
[1] = biological target: Sulfotransferase 1A3 (Homo sapiens, UniProt P0DMM9); experiment: Drug metabolism assessed as human SULT1A3-mediated (R)-1-(4-(4-fluoro-2-methyl-1H-indol-5-yloxy)-5-methylpyrrolo[1,2-f][1,2,4]triazin-6-yloxy)propane-2-sulfonic acid formation at 2 and 20 uM for 30 mins by LC/MS analysis in presence of PAPS; details: 0.5 h
[2] = biological target: T1, Cytochrome P450 2E1 (Homo sapiens, UniProt P05181); experiment: Drug metabolism in human liver microsomes assessed as monoclonal antibody-mediated inhibition of CYP2E1-mediated (R)-1-(4-(4-fluoro-2-(hydroxymethyl)-1H-indol-5-yloxy)-5-methylpyrrolo[1,2-f][1,2,4]triazin-6-yloxy)propan-2-ol formation at 2 and 20 uM for 30 mins by LC/MS analysis; details: 0.5 h
[3] = biological target: T2, Cytochrome P450 2D6 (Homo sapiens, UniProt P10635); experiment: Drug metabolism assessed as human CYP2D6-mediated (R)-1-(4-(4-fluoro-2-(hydroxymethyl)-1H-indol-5-yloxy)-5-methylpyrrolo[1,2-f][1,2,4]triazin-6-yloxy)propan-2-ol formation at 2 and 20 uM for 20 mins by LC/MS analysis in presence of NADPH; details: recombinant enzyme
[4] = biological target: T2, Cytochrome P450 2D6; experiment: Drug metabolism in human liver microsomes assessed as 1 uM quinidine-mediated inhibition of CYP2D6-mediated(R)-1-(4-(4-fluoro-2-(hydroxymethyl)-1H-indol-5-yloxy)-5-methylpyrrolo[1,2-f][1,2,4]triazin-6-yloxy)propan-2-ol formation at 2 and 20 uM for 30 mins by LC/MS analysis; details: 0.5 h
[5] = biological target: T3, Cytochrome P450 1A2 (Homo sapiens, UniProt P05177); experiment: Drug metabolism assessed as human CYP1A2-mediated (R)-1-(4-(4-fluoro-2-(hydroxymethyl)-1H-indol-5-yloxy)-5-methylpyrrolo[1,2-f][1,2,4]triazin-6-yloxy)propan-2-ol formation at 2 and 20 uM for 20 mins by LC/MS analysis in presence of NADPH; details: recombinant enzyme
T3 sequence (P05177 whole entry): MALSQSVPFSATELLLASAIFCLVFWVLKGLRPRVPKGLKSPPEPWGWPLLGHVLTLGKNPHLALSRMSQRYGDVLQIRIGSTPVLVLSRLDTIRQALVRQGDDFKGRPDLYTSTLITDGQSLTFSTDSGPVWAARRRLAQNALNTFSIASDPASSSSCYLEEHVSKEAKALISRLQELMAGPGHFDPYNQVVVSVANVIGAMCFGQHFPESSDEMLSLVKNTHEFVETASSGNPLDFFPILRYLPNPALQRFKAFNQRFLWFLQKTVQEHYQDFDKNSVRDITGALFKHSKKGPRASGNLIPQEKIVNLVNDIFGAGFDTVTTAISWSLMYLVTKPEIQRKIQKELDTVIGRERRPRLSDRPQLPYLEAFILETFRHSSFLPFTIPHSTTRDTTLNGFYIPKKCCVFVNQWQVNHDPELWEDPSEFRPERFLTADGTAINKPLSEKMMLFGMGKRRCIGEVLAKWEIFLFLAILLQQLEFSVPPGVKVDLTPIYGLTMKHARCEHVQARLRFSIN

[6] = Activity of CYP3A4/CYP1A2 in human liver microsomes assessed as intrinsic clearance for enzyme-mediated (R)-1-(4-(4-fluoro-2-(hydroxymethyl)-1H-indol-5-yloxy)-5-methylpyrrolo[1,2-f][1,2,4]triazin-6-yloxy)propan-2-ol formation per mg protein in presence of NADPH
[7] = test system: Liver microsome; experiment: Drug metabolism in human liver microsomes assessed as (R)-1-(4-(4-fluoro-2-(hydroxymethyl)-1H-indol-5-yloxy)-5-methylpyrrolo[1,2-f][1,2,4]triazin-6-yloxy)propan-2-ol formation at 2 and 20 uM for 30 mins by LC/MS analysis in presence of antibody for CYP1A2; details: 0.5 h
[8] = biological target: T4, Cytochrome P450 2C19 (Homo sapiens, UniProt P33261); experiment: Drug metabolism assessed as human CYP2C19-mediated (R)-1-(4-(4-fluoro-2-(hydroxymethyl)-1H-indol-5-yloxy)-5-methylpyrrolo[1,2-f][1,2,4]triazin-6-yloxy)propan-2-ol formation at 2 and 20 uM for 20 mins by LC/MS analysis in presence of NADPH; details: recombinant enzyme
[9] = biological target: Cytochrome P450 1B1 (Homo sapiens, UniProt Q16678); experiment: Drug metabolism assessed as human CYP1B1-mediated (R)-1-(4-(4-fluoro-2-(hydroxymethyl)-1H-indol-5-yloxy)-5-methylpyrrolo[1,2-f][1,2,4]triazin-6-yloxy)propan-2-ol formation at 2 and 20 uM for 20 mins by LC/MS analysis in presence of NADPH; details: recombinant enzyme
[10] = biological target: T1, Cytochrome P450 2E1; experiment: Drug metabolism in human liver microsomes assessed as 50 uM diethyldithiocarbamate-mediated inhibition of CYP2E1-mediated (R)-1-(4-(4-fluoro-2-(hydroxymethyl)-1H-indol-5-yloxy)-5-methylpyrrolo[1,2-f][1,2,4]triazin-6-yloxy)propan-2-ol formation at 2 and 20 uM for 30 mins by LC/MS analysis; details: 0.5 h
[11] = biological target: Sulfotransferase 2A1 (Homo sapiens, UniProt Q06520); experiment: Drug metabolism assessed as human SULT2A1-mediated (R)-1-(4-(4-fluoro-2-methyl-1H-indol-5-yloxy)-5-methylpyrrolo[1,2-f][1,2,4]triazin-6-yloxy)propane-2-sulfonic acid formation at 2 and 20 uM for 30 mins by LC/MS analysis in presence of PAPS; details: 0.5 h
[12] = biological target: Cytochrome P450 1A1 (Homo sapiens, UniProt P04798); experiment: Drug metabolism assessed as human CYP1A1-mediated (R)-1-(4-(4-fluoro-2-(hydroxymethyl)-1H-indol-5-yloxy)-5-methylpyrrolo[1,2-f][1,2,4]triazin-6-yloxy)propan-2-ol formation at 2 and 20 uM for 20 mins by LC/MS analysis in presence of NADPH; details: recombinant enzyme
[13] = biological target: Sulfotransferase 1E1 (Homo sapiens, UniProt P49888); experiment: Drug metabolism assessed as human SULT1E1-mediated (R)-1-(4-(4-fluoro-2-methyl-1H-indol-5-yloxy)-5-methylpyrrolo[1,2-f][1,2,4]triazin-6-yloxy)propane-2-sulfonic acid formation at 2 and 20 uM for 30 mins by LC/MS analysis in presence of PAPS; details: 0.5 h
[14] = biological target: T4, Cytochrome P450 2C19; experiment: Drug metabolism in human liver microsomes assessed as monoclonal antibody-mediated inhibition of CYP2C19-mediated (R)-1-(4-(4-fluoro-2-(hydroxymethyl)-1H-indol-5-yloxy)-5-methylpyrrolo[1,2-f][1,2,4]triazin-6-yloxy)propan-2-ol formation at 2 and 20 uM for 30 mins by LC/MS analysis; details: 0.5 h

T1 sequence (P05181 whole entry): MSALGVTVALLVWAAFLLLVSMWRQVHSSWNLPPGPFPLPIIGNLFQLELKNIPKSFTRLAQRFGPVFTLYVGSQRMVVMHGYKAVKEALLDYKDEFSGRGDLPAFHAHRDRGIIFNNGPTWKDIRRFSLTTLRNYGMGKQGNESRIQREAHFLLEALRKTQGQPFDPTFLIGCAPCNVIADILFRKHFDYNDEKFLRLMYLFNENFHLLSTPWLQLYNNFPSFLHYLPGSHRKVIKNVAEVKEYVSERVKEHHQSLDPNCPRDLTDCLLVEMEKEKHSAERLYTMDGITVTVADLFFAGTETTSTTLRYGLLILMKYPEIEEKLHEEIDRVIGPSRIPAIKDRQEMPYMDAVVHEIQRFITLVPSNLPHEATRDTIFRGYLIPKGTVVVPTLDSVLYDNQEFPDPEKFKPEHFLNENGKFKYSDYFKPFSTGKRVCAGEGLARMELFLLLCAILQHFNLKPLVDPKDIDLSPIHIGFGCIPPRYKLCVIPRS
T4 sequence (P33261 whole entry): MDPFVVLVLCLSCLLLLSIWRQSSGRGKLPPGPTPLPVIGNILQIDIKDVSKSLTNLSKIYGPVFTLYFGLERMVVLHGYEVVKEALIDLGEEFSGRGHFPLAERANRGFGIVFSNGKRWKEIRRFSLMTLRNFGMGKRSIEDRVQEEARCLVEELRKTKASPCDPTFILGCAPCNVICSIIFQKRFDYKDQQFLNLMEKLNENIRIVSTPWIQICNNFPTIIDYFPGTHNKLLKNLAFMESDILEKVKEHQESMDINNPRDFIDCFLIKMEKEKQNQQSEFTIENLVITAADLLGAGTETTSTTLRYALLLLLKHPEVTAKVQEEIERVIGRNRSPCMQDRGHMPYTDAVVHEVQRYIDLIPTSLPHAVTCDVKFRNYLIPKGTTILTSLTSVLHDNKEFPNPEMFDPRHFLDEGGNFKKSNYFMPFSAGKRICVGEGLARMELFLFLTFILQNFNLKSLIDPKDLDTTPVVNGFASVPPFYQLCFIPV
T2 sequence (P10635 whole entry): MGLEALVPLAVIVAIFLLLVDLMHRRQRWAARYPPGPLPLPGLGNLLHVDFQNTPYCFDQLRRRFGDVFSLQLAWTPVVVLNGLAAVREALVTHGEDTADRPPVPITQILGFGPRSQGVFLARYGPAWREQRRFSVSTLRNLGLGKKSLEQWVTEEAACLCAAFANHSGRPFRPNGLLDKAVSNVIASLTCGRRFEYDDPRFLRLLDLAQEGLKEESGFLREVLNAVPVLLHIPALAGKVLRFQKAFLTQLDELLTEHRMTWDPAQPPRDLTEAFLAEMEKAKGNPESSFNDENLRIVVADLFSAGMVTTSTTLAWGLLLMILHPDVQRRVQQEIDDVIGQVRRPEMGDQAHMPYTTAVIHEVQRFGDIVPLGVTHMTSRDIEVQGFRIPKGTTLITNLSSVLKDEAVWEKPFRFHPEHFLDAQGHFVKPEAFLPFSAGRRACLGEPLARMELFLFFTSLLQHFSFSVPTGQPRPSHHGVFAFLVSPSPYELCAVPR
Sulfotransferase 1A3, sequence (P0DMM9 whole entry): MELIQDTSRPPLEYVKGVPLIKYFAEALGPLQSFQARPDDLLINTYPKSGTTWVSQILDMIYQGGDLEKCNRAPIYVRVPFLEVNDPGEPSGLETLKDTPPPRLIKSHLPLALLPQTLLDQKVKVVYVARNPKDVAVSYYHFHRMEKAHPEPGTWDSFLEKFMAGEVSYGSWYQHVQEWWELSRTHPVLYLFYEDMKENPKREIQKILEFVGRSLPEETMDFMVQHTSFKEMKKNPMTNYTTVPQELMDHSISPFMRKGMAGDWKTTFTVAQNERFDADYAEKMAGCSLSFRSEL
Sulfotransferase 2A1, sequence (Q06520 whole entry): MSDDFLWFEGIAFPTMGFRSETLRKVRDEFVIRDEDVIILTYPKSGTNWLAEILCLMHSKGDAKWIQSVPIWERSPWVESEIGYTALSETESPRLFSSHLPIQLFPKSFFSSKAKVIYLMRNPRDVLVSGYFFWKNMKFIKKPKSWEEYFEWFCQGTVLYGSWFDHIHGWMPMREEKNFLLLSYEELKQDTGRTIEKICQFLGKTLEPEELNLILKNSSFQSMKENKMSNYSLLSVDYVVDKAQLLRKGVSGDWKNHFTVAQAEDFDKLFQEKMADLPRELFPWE
Sulfotransferase 1E1, sequence (P49888 whole entry): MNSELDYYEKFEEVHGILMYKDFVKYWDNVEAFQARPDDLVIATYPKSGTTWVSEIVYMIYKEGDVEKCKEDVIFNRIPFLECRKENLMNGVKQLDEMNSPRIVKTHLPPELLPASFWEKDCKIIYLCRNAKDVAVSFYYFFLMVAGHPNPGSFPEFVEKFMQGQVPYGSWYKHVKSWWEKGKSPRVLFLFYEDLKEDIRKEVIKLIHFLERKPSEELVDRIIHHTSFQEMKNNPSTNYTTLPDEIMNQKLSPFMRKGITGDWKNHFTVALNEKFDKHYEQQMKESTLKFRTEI
Cytochrome P450 1A1, sequence (P04798 whole entry): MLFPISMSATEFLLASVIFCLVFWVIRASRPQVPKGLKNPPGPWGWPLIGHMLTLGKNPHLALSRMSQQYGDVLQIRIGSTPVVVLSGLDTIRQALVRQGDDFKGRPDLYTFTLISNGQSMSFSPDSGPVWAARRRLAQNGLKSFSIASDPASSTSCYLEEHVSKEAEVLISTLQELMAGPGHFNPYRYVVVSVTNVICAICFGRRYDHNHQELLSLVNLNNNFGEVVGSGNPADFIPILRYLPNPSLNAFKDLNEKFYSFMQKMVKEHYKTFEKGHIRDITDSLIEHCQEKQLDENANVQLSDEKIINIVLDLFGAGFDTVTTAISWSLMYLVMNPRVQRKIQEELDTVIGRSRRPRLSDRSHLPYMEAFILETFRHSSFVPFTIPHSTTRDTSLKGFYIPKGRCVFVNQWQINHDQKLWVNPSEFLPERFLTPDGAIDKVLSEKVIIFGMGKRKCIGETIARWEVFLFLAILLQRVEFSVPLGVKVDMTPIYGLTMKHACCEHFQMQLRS
Cytochrome P450 1B1, sequence (Q16678 whole entry): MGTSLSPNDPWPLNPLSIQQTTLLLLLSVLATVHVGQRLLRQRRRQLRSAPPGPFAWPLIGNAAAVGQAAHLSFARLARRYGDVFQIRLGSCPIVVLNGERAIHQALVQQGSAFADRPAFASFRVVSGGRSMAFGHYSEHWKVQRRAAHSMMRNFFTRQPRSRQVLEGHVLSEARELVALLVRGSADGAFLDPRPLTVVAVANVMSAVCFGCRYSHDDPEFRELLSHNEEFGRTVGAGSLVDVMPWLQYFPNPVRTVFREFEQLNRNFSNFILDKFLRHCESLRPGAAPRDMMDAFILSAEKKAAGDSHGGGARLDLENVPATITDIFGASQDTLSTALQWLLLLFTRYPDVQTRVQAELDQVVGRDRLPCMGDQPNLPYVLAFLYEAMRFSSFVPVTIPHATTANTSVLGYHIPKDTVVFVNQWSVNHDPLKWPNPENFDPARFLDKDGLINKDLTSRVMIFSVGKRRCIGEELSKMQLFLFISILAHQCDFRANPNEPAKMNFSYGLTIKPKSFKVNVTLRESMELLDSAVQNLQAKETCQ

Question: Which Drug metabolism [1] does the source give for `Cc1cc2c(F)c(Oc3ncnn4cc(OC[C@@H](C)O)c(C)c34)ccc2[nH]1` [BRIVANIB] here?
Answer: The Drug metabolism was “metabolite_detected”.

Question: And the Drug metabolism [2]?
Answer: The Drug metabolism was “metabolite_detected”.

Question: What about the Drug metabolism [3] of the same compound?
Answer: The Drug metabolism was “metabolite_detected”.

Question: What about the Drug metabolism [4] of the same compound?
Answer: Its Drug metabolism is “metabolite_detected”.

Question: What about the Drug metabolism [5] of the same compound?
Answer: The Drug metabolism was “metabolite_detected”.

Question: What about the CLint [6] of the same compound?
Answer: Its CLint is 3.1 µL/min/mg.

Question: And the Drug metabolism [7]?
Answer: Its Drug metabolism is “metabolite_not_detected”.

Question: And the Drug metabolism [8]?
Answer: The Drug metabolism was “metabolite_detected”.

Question: And the Drug metabolism [9]?
Answer: Its Drug metabolism is “metabolite_detected”.

Question: What about the Drug metabolism [10] of the same compound?
Answer: Its Drug metabolism is “metabolite_detected”.

Question: And the Drug metabolism [11]?
Answer: The Drug metabolism was “metabolite_detected”.

Question: And the Drug metabolism [12]?
Answer: The Drug metabolism was “metabolite_detected”.

Question: What about the Drug metabolism [13] of the same compound?
Answer: The Drug metabolism was “metabolite_detected”.

Question: What about the Drug metabolism [14] of the same compound?
Answer: The Drug metabolism was “metabolite_detected”.
